Test results as given in patent US11697648B2, “Fused pyrimidine pyridinone compounds as JAK inhibitors” (THERAVANCE BIOPHARMA R&D IP, LLC, priority 2019, dated 2023).

Tests used:
[1] = target: JAK2 (Homo sapiens (Human), UniProt O60674); experiment: Biochemical JAK2 kinase assay (LanthaScreen)
Method: (§1) Assay 1: Biochemical JAK and Tyk2 Kinase Assays
(§2) A panel of four LanthaScreen JAK biochemical assays (JAK1, 2, 3 and Tyk2) were carried in a common kinase reaction buffer (50 mM HEPES, pH 7.5, 0.01% Brij-35, 10 mM MgCl2, and 1 mM EGTA). Recombinant GST-tagged JAK enzymes and a GFP-tagged STAT1 peptide substrate were obtained from Life Technologies.
(§3) Serially or discretely diluted compounds were pre-incubated with each of the four JAK enzymes and the substrate in white 384-well microplates (Corning) at ambient temperature for 1 h. ATP was subsequently added to initiate the kinase reactions in 10 μL total volume, with 1% DMSO. […] Kinase reactions were allowed to proceed for 1 hour at ambient temperature before a 10 μL preparation of EDTA (10 mM final concentration) and Tb-anti-pSTAT1 (pTyr701) antibody (Life Technologies, 2 nM final concentration) in TR-FRET dilution buffer (Life Technologies) was added. The plates were allowed to incubate at ambient temperature for 1 h before being read on the EnVision reader (Perkin Elmer). Emission ratio signals (520 nm/495 nm) were recorded and utilized to calculate the percent inhibition values based on DMSO and background controls.
(§4) For dose-response analysis, percent inhibition data were plotted vs. compound concentrations, and IC50 values were determined from a 4-parameter robust fit model with the Prism software (GraphPad Software). Results were expressed as pIC50 (negative logarithm of IC50) and subsequently converted to pKi (negative logarithm of dissociation constant, Ki) using the Cheng-Prusoff equation.

[2] = target: Tyk2 (Homo sapiens (Human), UniProt P29597); experiment: Biochemical Tyk2 kinase assay (LanthaScreen)
Method: as §1, §2, §3, §4

[3] = target: JAK3 (Homo sapiens (Human), UniProt P52333); experiment: Biochemical JAK3 kinase assay (LanthaScreen); conditions: for JAK3 (pKi)-JAK1 (pKi): selectivity JAK3 over JAK1, difference of pKi
Method: as §1, §2, §3, §4

[4] = target: JAK1 (Homo sapiens (Human), UniProt P23458); experiment: Biochemical JAK1 kinase assay (LanthaScreen)
Method: as §1, §2, §3, §4

[5] = system: IL-2 stimulated STAT5 phosphorylation in Tall-1 human T cell line (JAK3); experiment: Cellular JAK3 potency assay: inhibition of IL-2 stimulated pSTAT5 in Tall-1 T cells; format: cell-based; conditions: IL-2 stimulated pSTAT5, Tall-1 T cells
Method: Assay 2: Cellular JAK3 Potency Assay: Inhibition of IL-2 Stimulated pSTAT5 in Tall-1 T Cells
The potency of test compounds for inhibition of interleukin-2 (IL-2) stimulated STAT5 phosphorylation was measured in the Tall-1 human T cell line (DSMZ) using AlphaLisa. Because IL-2 signals through JAK3, this assay provides a measure of JAK3 cellular potency.
Phosphorylated STAT5 was measured via the AlphaLISA SureFire Ultra pSTAT5 (Tyr694/699) kit (PerkinElmer).
Human T cells from the Tall-1 cell line were cultured in a 37° C., 5% CO2 humidified incubator in RPMI (Life Technologies) supplemented with 15% Heat Inactivated Fetal Bovine Serum (FBS, Life Technologies), 2 mM Glutamax (Life Technologies), 25 mM HEPES (Life Technologies) and 1× Pen/Strep (Life Technologies). Compounds were serially diluted in DMSO and dispensed acoustically to empty wells. Assay media (phenol red-free DMEM (Life Technologies) supplemented with 10% FBS (ATCC)) was dispensed (4 μL/well) and plates shaken at 900 rpm for 10 inns. Cells were seeded at 45,000 cells/well in assay media (4 μL/well), and incubated at 37° C., 5% CO2 for 1 hour, followed by the addition of IL-2 (R&D Systems; final concentration 300 ng/ml) in pre-warmed assay media (4 μL) for 30 minutes. After cytokine stimulation, cells were lysed with 6 ul of 3× AlphaLisa Lysis Buffer (PerkinElmer) containing 1× PhosStop and Complete tablets (Roche). The lysate was shaken at 900 rpm for 10 minutes at room temperature (RT). Phosphorylated STAT5 was measured via the pSTAT5 AlphaLisa kit (PerkinElmer). Freshly prepared acceptor bead mixture was dispensed onto lysate (5 μL) under green filtered <100 lux light. Plates were shaken at 900 rpm for 2 mins, briefly spun down, and incubated for 2 hrs at RT in the dark. Donor beads were dispensed (5 μL) under green filtered <100 lux light. Plates were shaken at 900 rpm for 2 minutes, briefly spun down, and incubated overnight at RT in the dark. Luminescence was measured with excitation at 689 nm and emission at 570 nm using an EnVision plate reader (PerkinElmer) under green filtered <100 lux light.
To determine the inhibitory potency of test compounds in response to IL-2, the average emission intensity of beads bound to pSTAT5 was measured in a human T cell line. IC50 values were determined from analysis of the inhibition curves of signal intensity versus compound concentration. Data are expressed as pIC50 (negative decadic logarithm IC50) values (mean standard deviation).

Sequence of JAK3 (P52333 whole entry): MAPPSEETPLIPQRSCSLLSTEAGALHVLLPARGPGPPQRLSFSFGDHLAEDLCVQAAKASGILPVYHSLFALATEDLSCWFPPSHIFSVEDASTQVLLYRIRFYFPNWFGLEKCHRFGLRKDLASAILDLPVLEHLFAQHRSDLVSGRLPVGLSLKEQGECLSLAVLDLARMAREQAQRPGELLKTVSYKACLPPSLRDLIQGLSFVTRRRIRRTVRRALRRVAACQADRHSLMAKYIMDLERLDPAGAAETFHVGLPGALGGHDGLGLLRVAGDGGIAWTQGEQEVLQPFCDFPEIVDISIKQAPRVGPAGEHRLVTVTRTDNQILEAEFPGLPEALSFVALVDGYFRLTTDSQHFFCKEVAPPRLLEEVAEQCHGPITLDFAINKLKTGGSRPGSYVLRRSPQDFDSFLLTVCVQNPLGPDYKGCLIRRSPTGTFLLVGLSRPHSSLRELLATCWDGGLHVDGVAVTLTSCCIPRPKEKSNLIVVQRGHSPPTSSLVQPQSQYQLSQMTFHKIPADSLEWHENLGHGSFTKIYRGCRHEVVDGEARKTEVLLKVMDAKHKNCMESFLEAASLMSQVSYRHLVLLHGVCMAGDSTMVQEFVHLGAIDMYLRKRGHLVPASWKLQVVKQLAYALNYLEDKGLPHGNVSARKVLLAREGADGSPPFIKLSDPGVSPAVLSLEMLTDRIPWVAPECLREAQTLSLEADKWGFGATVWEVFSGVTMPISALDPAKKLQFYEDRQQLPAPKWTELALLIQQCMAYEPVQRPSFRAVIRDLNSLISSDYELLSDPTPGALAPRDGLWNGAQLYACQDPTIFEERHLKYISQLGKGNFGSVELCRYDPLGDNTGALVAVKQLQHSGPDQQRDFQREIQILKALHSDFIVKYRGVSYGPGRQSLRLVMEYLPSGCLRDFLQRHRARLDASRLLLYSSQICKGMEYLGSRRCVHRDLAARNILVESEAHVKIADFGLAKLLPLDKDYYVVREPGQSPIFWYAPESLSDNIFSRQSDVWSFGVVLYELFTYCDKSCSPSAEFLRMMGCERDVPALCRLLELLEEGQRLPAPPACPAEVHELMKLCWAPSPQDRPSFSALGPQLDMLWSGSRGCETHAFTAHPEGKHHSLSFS
Sequence of JAK1 (P23458 whole entry): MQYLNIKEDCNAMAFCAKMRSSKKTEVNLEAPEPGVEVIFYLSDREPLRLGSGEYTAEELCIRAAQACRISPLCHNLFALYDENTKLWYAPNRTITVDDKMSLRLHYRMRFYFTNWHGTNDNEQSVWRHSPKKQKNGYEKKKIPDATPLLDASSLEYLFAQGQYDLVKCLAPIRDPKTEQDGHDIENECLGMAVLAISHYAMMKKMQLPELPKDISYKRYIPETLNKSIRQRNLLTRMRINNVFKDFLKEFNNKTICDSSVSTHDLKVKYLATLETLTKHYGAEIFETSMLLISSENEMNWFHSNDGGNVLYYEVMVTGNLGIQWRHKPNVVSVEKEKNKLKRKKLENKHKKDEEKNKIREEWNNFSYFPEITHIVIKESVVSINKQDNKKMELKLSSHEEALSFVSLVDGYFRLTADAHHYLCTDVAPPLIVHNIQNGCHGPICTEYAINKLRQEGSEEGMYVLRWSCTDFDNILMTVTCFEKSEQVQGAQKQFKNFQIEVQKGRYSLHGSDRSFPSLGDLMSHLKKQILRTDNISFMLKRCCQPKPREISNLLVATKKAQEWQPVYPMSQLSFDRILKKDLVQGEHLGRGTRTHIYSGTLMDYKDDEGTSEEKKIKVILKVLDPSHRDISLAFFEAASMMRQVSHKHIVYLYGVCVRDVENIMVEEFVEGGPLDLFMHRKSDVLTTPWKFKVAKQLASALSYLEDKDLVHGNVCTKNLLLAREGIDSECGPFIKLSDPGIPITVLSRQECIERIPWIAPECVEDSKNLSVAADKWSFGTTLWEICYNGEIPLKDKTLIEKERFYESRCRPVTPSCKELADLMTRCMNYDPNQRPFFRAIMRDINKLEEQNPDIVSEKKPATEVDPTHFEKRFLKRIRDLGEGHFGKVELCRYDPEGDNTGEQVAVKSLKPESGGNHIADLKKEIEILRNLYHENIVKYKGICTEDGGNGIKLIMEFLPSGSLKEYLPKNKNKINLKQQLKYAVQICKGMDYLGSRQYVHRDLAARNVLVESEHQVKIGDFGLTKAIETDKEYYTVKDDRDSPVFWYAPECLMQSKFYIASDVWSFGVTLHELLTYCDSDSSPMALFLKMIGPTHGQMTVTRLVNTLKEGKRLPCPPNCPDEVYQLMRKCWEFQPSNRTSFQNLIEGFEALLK
Sequence of Tyk2 (P29597 whole entry): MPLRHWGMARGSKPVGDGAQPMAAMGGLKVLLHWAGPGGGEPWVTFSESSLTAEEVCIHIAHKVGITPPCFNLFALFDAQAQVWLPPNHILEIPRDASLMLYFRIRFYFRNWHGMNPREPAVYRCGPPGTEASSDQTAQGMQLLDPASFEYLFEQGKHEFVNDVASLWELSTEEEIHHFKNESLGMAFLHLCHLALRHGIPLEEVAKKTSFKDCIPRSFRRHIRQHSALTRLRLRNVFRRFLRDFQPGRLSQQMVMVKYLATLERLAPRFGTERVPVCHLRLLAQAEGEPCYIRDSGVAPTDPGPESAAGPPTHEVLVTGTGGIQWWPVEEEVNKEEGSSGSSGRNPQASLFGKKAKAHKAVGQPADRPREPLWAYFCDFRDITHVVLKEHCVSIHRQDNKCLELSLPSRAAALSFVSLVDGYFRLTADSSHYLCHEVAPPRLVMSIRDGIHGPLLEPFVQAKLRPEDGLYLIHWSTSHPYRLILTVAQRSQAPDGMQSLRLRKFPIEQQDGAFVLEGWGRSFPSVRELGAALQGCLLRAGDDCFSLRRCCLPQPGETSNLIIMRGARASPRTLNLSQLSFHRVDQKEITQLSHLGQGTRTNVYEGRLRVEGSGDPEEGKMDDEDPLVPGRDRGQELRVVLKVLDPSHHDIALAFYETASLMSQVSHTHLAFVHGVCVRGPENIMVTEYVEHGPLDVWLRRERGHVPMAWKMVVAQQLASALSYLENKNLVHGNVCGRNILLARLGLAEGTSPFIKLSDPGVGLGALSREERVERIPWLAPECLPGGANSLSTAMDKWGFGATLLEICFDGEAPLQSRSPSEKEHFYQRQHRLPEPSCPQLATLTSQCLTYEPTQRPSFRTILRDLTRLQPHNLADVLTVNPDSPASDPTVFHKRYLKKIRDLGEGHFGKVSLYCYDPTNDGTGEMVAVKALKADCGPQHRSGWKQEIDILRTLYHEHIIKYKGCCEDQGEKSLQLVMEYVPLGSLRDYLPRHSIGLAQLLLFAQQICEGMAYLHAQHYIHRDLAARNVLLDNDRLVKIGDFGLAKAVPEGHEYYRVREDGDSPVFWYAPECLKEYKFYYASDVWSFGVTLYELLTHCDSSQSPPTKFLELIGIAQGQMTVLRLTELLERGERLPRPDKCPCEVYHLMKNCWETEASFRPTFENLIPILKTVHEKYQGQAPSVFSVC
Sequence of JAK2 (O60674 whole entry): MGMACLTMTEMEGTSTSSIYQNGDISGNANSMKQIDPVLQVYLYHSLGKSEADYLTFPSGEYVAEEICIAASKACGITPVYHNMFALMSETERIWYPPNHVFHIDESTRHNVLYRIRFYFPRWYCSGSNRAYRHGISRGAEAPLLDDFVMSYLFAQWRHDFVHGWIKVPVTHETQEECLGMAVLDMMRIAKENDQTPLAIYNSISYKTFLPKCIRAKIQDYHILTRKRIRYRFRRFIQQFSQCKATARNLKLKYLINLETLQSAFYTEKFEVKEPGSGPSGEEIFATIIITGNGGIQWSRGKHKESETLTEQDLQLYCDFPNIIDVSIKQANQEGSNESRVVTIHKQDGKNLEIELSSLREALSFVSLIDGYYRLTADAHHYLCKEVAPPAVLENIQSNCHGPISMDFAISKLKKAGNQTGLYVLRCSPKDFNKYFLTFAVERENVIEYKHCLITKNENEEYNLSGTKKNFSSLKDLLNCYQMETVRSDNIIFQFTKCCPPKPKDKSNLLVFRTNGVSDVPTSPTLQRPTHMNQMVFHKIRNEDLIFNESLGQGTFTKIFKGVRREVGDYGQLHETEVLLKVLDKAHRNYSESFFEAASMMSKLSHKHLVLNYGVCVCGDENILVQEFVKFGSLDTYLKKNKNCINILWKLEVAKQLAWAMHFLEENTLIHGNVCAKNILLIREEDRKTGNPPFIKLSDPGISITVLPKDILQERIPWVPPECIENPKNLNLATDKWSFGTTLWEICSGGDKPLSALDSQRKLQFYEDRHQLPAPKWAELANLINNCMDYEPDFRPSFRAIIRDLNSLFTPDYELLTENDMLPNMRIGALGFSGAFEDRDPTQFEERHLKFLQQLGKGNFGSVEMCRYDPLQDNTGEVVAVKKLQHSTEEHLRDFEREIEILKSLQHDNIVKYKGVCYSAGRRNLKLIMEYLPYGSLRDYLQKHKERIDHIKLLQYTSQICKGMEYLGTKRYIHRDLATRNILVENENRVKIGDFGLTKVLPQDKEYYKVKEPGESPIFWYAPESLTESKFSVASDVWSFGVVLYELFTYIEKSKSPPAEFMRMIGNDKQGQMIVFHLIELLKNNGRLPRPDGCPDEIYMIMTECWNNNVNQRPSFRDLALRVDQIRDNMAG

| Structure (SMILES) | JAK 2 (pKi) [1] | Tyk 2 (pKi) [2] | JAK 3 (pKi) [3] | JAK3 (pKi)-JAK1 (pKi) [3] | JAK 1 (pKi) [4] | Tall-1 (pIC50) [5] |
| --- | --- | --- | --- | --- | --- | --- |
| C=CC(=O)N1CC(CCn2c(=O)ccc3cnc(Nc4ccc(N5CCOCC5)c(F)c4)nc32)C1 [Example 23] | E (E represents a pKi value of 7 or below (Ki of 100 nM or above)) | E (E represents a pKi value of 7 or below (Ki of 100 nM or above)) | B (B represents pKi value between 9 and 10 (Ki between 1 nM and 0.1 nM)) | A (A represents a value of 3 or above) | E (E represents a pKi value of 7 or below (Ki of 100 nM or above)) | B (B represents a pC50 value between 6.7 (included) and 7.5 (IC50 between 200 nM and 32 nM)) |
| C=CC(=O)N1CCN(CCn2c(=O)ccc3cnc(Nc4cnn(C)c4)nc32)C(C)(C)C1 [Example 33] | E (E represents a pKi value of 7 or below (Ki of 100 nM or above)) | E (E represents a pKi value of 7 or below (Ki of 100 nM or above)) | A (A represents a pKi value≥10 (Ki≤0.1 nM)) | A (A represents a value of 3 or above) | E (E represents a pKi value of 7 or below (Ki of 100 nM or above)) | B (B represents a pC50 value between 6.7 (included) and 7.5 (IC50 between 200 nM and 32 nM)) |
| C=CC(=O)N1CC(CCn2c(=O)ccc3cnc(Nc4cnn(-c5ccccc5)c4)nc32)C1 [Example 34] | E (E represents a pKi value of 7 or below (Ki of 100 nM or above)) | E (E represents a pKi value of 7 or below (Ki of 100 nM or above)) | B (B represents pKi value between 9 and 10 (Ki between 1 nM and 0.1 nM)) | A (A represents a value of 3 or above) | E (E represents a pKi value of 7 or below (Ki of 100 nM or above)) | B (B represents a pC50 value between 6.7 (included) and 7.5 (IC50 between 200 nM and 32 nM)) |
| C=CC(=O)N1CCN(CCn2c(=O)ccc3cnc(Nc4ccc(N5CCN(C)CC5)nc4)nc32)CC1 [Example 37] | E (E represents a pKi value of 7 or below (Ki of 100 nM or above)) | E (E represents a pKi value of 7 or below (Ki of 100 nM or above)) | B (B represents pKi value between 9 and 10 (Ki between 1 nM and 0.1 nM)) | A (A represents a value of 3 or above) | E (E represents a pKi value of 7 or below (Ki of 100 nM or above)) | B (B represents a pC50 value between 6.7 (included) and 7.5 (IC50 between 200 nM and 32 nM)) |
| C=CC(=O)N1CCN(CCn2c(=O)ccc3cnc(Nc4ccc(N5CCN(C)CC5)c(F)c4)nc32)CC1 [Example 39] | E (E represents a pKi value of 7 or below (Ki of 100 nM or above)) | E (E represents a pKi value of 7 or below (Ki of 100 nM or above)) | B (B represents pKi value between 9 and 10 (Ki between 1 nM and 0.1 nM)) | A (A represents a value of 3 or above) | E (E represents a pKi value of 7 or below (Ki of 100 nM or above)) | B (B represents a pC50 value between 6.7 (included) and 7.5 (IC50 between 200 nM and 32 nM)) |
| C=CC(=O)N1CC(CCn2c(=O)ccc3cnc(Nc4ccc(N5CCN(C)CC5)cc4)nc32)C1 [Example 45] | E (E represents a pKi value of 7 or below (Ki of 100 nM or above)) | E (E represents a pKi value of 7 or below (Ki of 100 nM or above)) | B (B represents pKi value between 9 and 10 (Ki between 1 nM and 0.1 nM)) | A (A represents a value of 3 or above) | E (E represents a pKi value of 7 or below (Ki of 100 nM or above)) | B (B represents a pC50 value between 6.7 (included) and 7.5 (IC50 between 200 nM and 32 nM)) |
| C=CC(=O)N1CC(CCn2c(=O)ccc3cnc(Nc4ccc(CN5CCN(C)CC5)cc4)nc32)C1 [Example 46] | E (E represents a pKi value of 7 or below (Ki of 100 nM or above)) | E (E represents a pKi value of 7 or below (Ki of 100 nM or above)) | B (B represents pKi value between 9 and 10 (Ki between 1 nM and 0.1 nM)) | A (A represents a value of 3 or above) | E (E represents a pKi value of 7 or below (Ki of 100 nM or above)) | B (B represents a pC50 value between 6.7 (included) and 7.5 (IC50 between 200 nM and 32 nM)) |
| C=CC(=O)N1CC(CCn2c(=O)ccc3cnc(Nc4ccc(N5CCN(C)CC5)c(F)c4)nc32)C1 [Example 48] | E (E represents a pKi value of 7 or below (Ki of 100 nM or above)) | E (E represents a pKi value of 7 or below (Ki of 100 nM or above)) | B (B represents pKi value between 9 and 10 (Ki between 1 nM and 0.1 nM)) | A (A represents a value of 3 or above) | E (E represents a pKi value of 7 or below (Ki of 100 nM or above)) | B (B represents a pC50 value between 6.7 (included) and 7.5 (IC50 between 200 nM and 32 nM)) |
| C=CC(=O)N1CCN(CCn2c(=O)ccc3cnc(Nc4ccc(N5CCN(C)CC5)c(C)c4)nc32)CC1 [Example 49] | E (E represents a pKi value of 7 or below (Ki of 100 nM or above)) | E (E represents a pKi value of 7 or below (Ki of 100 nM or above)) | B (B represents pKi value between 9 and 10 (Ki between 1 nM and 0.1 nM)) | A (A represents a value of 3 or above) | E (E represents a pKi value of 7 or below (Ki of 100 nM or above)) | B (B represents a pC50 value between 6.7 (included) and 7.5 (IC50 between 200 nM and 32 nM)) |
| C=CC(=O)N1CC(CCn2c(=O)ccc3cnc(Nc4ccc(N5CCSCC5)c(F)c4)nc32)C1 [Example 53] | E (E represents a pKi value of 7 or below (Ki of 100 nM or above)) | E (E represents a pKi value of 7 or below (Ki of 100 nM or above)) | B (B represents pKi value between 9 and 10 (Ki between 1 nM and 0.1 nM)) | A (A represents a value of 3 or above) | E (E represents a pKi value of 7 or below (Ki of 100 nM or above)) | B (B represents a pC50 value between 6.7 (included) and 7.5 (IC50 between 200 nM and 32 nM)) |
